{
  "source": "patent US9567318B2",
  "about": "“Substituted pyrimidine compounds and uses thereof” (Memorial Sloan-Kettering Cancer Center, priority 2009, dated 2017)",
  "key": {"[1]": {"system": "HER2, Raf-1, Akt, Hsp70 in SKBr3 cells", "assay": "Western blotting of Hsp90 onco-client proteins and Hsp70 in SKBr3 cells", "type": "cell-based, human", "conditions": "SKBr3 cells, 24 h", "experimental": "FIG. 3. Testing strategy for the discovery of YK5. a, b) SKBr3 cells were treated for 24 h with the indicated concentrations of inhibitors and cells were lysed for western blot (WB) analysis. β-actin was used as loading control. The data are consistent with those obtained from multiple repeat experiments (n≧3). c) The ability of the indicated inhibitors to compete with GM-Cy3B for Hsp90 binding in SKBr3 cell extracts was examined by fluorescence polarization. Values recorded in wells with added inhibitor were normalized to values read in control wells and plotted against the concentration of tested inhibitor. Drugs were assayed in triplicate. All compounds were used as DMSO stocks. Points, mean; bars, s.d. d) Growth inhibition: SKBr3 cells were incubated in triplicate with increasing concentrations of compound and growth over 72 h was assessed. Y-axis values below 0% represent cell death of the starting population. HER2 degradation was analyzed as in panel a), and gels were quantified by densitometry. Recorded values were normalized to control (vehicle only treated cells) and data graphed against YK5 concentration. Error bars represent the s.d. of the mean (n=3).\nFIG. 8. […] Points, mean; bars, s.d. Yaxis values below 0% represent cell death of the starting population. c) Streptavidin beads (50 μl) were incubated with the indicated concentrations of YK55, YK56 or D-biotin to immobilize the corresponding compounds on beads. Beads (50 μl) were probed with SKBr3 cell extracts (500 μg), and the precipitated Hsp70 analyzed by western blot and quantified by […]. Results from three independent experiments were graphed to determine the relative binding affinity of YKs. Points, mean; bars, s.d. d) Structure of representative YKs. YK55 and YK56 are the biotinylated derivatives of YK54 and YK57, respectively.\nFIG. 9. […] Cells were treated for 24 h with the indicated concentrations of YK149 and YK5. Cells were lysed and proteins analyzed by western blotting. b) Examples of the compounds of the present subject matter inhibit the activity of the oncogenic STAT3 in the triple-negative breast cancer cells MDA-MB-468. Cells were treated for the indicated times with compounds or vehicle and proteins analyzed by western blot. (c) Examples of the compounds of the present subject matter dose-dependently induce apoptosis in the acute myeloid leukemia cells MOLM13. Cells were treated for 24 h with the indicated concentration of compounds and the increase in caspase3,7 activity was measured and compared to only vehicle (DMSO) treated cells. Caspase-3,7 activity was a measure of compound potency in cleaving the caspase substrate Z-DEVD-R110 and releasing rhodamine. The percentage increase in apoptotic cells was calculated by comparing the fluorescence readings obtained from compounds with those obtained from vehicle (DMSO)-treated cells.\nWestern Blotting. Cells were grown to 60-70% confluence and treated with inhibitor or DMSO vehicle for the indicated times. Protein lysates were prepared in 50 mM Tris pH 7.4, 150 mM NaCl and 1% NP-40 lysis buffer. Protein concentrations were measured using the BCA kit (Pierce) according to the manufacturer's instructions. […]"}, "[2]": {"system": "Mia-PaCa2, AsPC-1, BxPC3 and PL45 cells", "assay": "Apoptosis, acridine orange/ethidium bromide, pancreatic cancer cells", "type": "cell-based, human", "conditions": "10 μM, 24-48 h", "experimental": "To determine whether cell death by YK5 was attributable to apoptosis, cells were treated with YK5 and effects on morphology, as well as on several effectors and mediators of apoptosis were analyzed (FIG. 13). To quantify the number of cells undergoing apoptosis, cells were stained with acridine orange/ethidium bromide (AO/EB) and analyzed under a fluorescence microscope for the percentage of viable, apoptotic (early and late) and necrotic cells. […] Most sensitive to YK5 were pancreatic cancer cells.\nApoptosis-Acridine Orange/Ethidium Bromide. Apoptosis was determined using acridine orange/ethidium bromide (AO/EB) double staining. Acridine orange is taken up by both viable and nonviable cells and emits green fluorescence if intercalated into double stranded nucleic acid (DNA) or red fluorescence if bound to single stranded nucleic acid (RNA). Ethidium bromide is taken up only by nonviable cells and emits red fluorescence by intercalation into DNA. (1) Viable cells have uniform green nuclei with organized structure. […] Following staining with Acridine Orange and Ethidium Bromide cells were visualized with a fluorescent microscope (Zeiss Axiovert 40 CFL) and counted. Percentage of apoptotic cells was determined from 200-300 cells counted in each group."}, "[3]": {"system": "primary human AML cells (blasts, leukemia stem cells)", "assay": "Treatment of primary AML cells", "type": "cell-based", "conditions": "24 h", "experimental": "FIG. 20. Treatment of primary AML cells with YK5. YK5 kills both blast and cancer stem cells but not normal cells. Cells were treated with increasing concentrations of YK5 for 24 h. (a-b) % viability relative to untreated control is shown. Open bars: “Other” represent normal cells in the same patient (non-blast), Gray bars: Blasts (CD45 dim). red bars: leukemia stem cells (LSCs) (CD34+CD38-CD123+). (c) CFU (Colony forming units) decrease after treatment of primary AML cells with YK5. **p<0.001.\nStrikingly, a high sensitivity of phenotypically described leukemia stem cells and of total leukemic blasts was observed (FIG. 20b; red vs. gray bars). […] Thus, a compound with cancer stem cell toxicity, such as YKs, is of significant value to improving cancer therapy.\nPrimary Cell Isolation and Culture. Primary human AML cells were obtained with informed consent. All manipulation and analysis of specimens was approved by the Weill Cornell Medical College Institutional Review Board. Mononuclear cells were isolated using Ficoll-Plaque (Pharmacia Biotech, Piscataway, N.Y.) density gradient separation. In some cases, cells were cryopreserved in freezing medium consisting of Iscove's modified Dulbecco medium (IMDM), 40% fetal bovine serum (FBS), and 10% dimethylsulfoxide (DMSO) or in CryoStor™ CS-10 (Biolife)."}},
  "note": "Entries after “also recorded” stand apart in the source; their conditions may differ.",
  "data": [
    {"smiles": "C=CC(=O)Nc1cc(N)nc(Sc2c(OC)nc(N3CCN(C)CC3)nc2OC)n1", "note": "[YK5, N-(6-amino-2-(4,6-dimethoxy-2-(4-methylpiperazin-1-yl)pyrimidin-5-ylthio)pyrimidin-4-yl)acrylamide]", "values": [
      {"measurement": "feed-back induction of Hsp70 (heat shock response)", "setting": "[1]", "value": "undetected"},
      {"measurement": "degradation of Hsp90 onco-client proteins (HER2, Raf-1, Akt)", "setting": "[1]; western blot", "value": "dose-dependently reduce the steady-state levels of HER2 and Raf-1; also recorded: induced the degradation of HER2, Raf-1 and Akt kinases"},
      {"measurement": "apoptosis in pancreatic cancer cells", "setting": "[2]", "value": "induced significant apoptosis"},
      {"measurement": "cell death in primary AML specimens", "setting": "[3]", "value": "induced potent cell death in blast, stem and progenitor populations"}
    ]}
  ]
}
